The subject of one experiment is pERK in HCT116 cells. The experiment in a line: Inhibition of KRas phosphorylation of ERK (Cisbio HTRF pERK assay). The following applies: Homo sapiens, HCT-116, read-out: Inhibition (HTRF IC50) of KRas-mediated Phosphorylation of ERK, HCT116.
The target in another experiment is KRas G12V (Homo sapiens, UniProt P01116, G12V). The experiment in a line: biochemical.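 Further: KRas binding measured by TR-FRET displacement at room temperature, IC50 fitted from percent of control values.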
A further experiment relates to pERK in H727 cells. Kind of experiment: Inhibition of KRas phosphorylation of ERK (Cisbio HTRF pERK assay). The settings on record: Homo sapiens, NCI-H727, read-out: Inhibition (HTRF IC50) of KRas-mediated Phosphorylation of ERK, H727.
Another experiment addresses KRas G12D (Homo sapiens, UniProt P01116, G12D). The experiment in a line: biochemical.
Another experiment concerns pERK in PSN1 cells. Kind of experiment: Inhibition of KRas phosphorylation of ERK (Cisbio HTRF pERK assay). The following applies: Homo sapiens, PSN1, 3 h, read-out: Inhibition (HTRF IC50) of KRas-mediated Phosphorylation of ERK, PSN1.
The subject of another experiment is pERK in ASPC1 cells. Described as above. The following applies: Homo sapiens, ASPC1, read-out: Inhibition (HTRF IC50) of KRas-mediated Phosphorylation of ERK, AsPC-1.
In the next experiment the test system is pERK in MKN1 cells. Described as above. The settings on record: Homo sapiens, MKN-1, 3 h, read-out: Inhibition (HTRF IC50) of KRas-mediated Phosphorylation of ERK, MKN1.
Another experiment deals with KRas G12R (Homo sapiens, UniProt P01116, G12R). The experiment in a line: biochemical.
Sequence of KRas G12R (P01116 1-169 isoform P01116-2 G12R): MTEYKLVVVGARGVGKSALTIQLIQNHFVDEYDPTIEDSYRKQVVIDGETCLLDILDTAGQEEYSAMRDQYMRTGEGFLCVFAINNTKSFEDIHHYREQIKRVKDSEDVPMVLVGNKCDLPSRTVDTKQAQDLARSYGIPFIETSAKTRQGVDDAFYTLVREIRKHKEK

Sequence of KRas G12V (P01116 1-169 isoform P01116-2 G12V): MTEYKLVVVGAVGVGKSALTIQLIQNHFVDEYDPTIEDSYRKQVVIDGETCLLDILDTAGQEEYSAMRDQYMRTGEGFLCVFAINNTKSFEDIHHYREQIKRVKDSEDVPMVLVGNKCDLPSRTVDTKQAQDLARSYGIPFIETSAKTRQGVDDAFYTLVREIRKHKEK
Sequence of KRas G12D (P01116 1-169 isoform P01116-2 G12D): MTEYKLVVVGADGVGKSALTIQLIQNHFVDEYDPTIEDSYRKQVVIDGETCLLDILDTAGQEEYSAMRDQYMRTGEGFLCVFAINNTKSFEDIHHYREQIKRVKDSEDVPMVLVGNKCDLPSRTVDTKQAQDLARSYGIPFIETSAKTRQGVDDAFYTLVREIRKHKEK

For the compound `CCc1c(F)ccc2cc(O)cc(-c3ncc4c(N5CCCC6(C5)NC(=O)NC6=O)nc(OCC5(CN(C)C)CC5)nc4c3F)c12` (stereo not shown) [Example 359, 7-(2-((1-((dimethylamino)methyl)cyclopropyl)methoxy)-7-(8-ethyl-7-fluoro-3-hydroxynaphthalen-1-yl)-8-fluoropyrido[4,3-d]pyrimidin-4-yl)-1,3,7-triazaspiro[4.5]decane-2,4-dione], the IC50 in the experiment on pERK in HCT116 cells is 576 nM; against KRas G12V, ≤ 2 nM; in the experiment on pERK in H727 cells, 782 nM; at KRas G12D, ≤ 2 nM; with pERK in PSN1 cells it was 4.09 µM; in the experiment with pERK in ASPC1 cells, 345 nM. The IC50 in the experiment on pERK in MKN1 cells was 60 nM; against KRas G12R, ≤ 2 nM.

For `CCc1c(F)ccc2cc(O)cc(-c3ncc4c(NCC5CC(=O)NC5=O)nc(OC[C@@]56CCCN5C[C@H](F)C6)nc4c3F)c12` (stereo partly drawn) [Example 367, 3-(((7-(8-ethyl-7-fluoro-3-hydroxynaphthalen-1-yl)-8-fluoro-2-(((2R,7aS)-2-fluorohexahydro-1H-pyrrolizin-7a-yl)methoxy)pyrido[4,3-d]pyrimidin-4-yl)amino)methyl)pyrrolidine-2,5-dione], the IC50 in the experiment with pERK in HCT116 cells is 375 nM; against KRas G12V, ≤ 2 nM; with pERK in H727 cells, 244 nM; against KRas G12D, ≤ 2 nM; with pERK in PSN1 cells it was ≥ 10 µM; with pERK in ASPC1 cells, 505 nM. In addition, the IC50 in the experiment on pERK in MKN1 cells is 58 nM; against KRas G12R it was ≤ 2 nM.

On to `C#Cc1c(F)ccc2cc(O)cc(-c3ncc4c(N5CCCC6(CNC6=O)C5)nc(OC[C@@]56CCCN5C[C@H](F)C6)nc4c3F)c12` (stereo partly drawn) [Example 392, 6-(7-(8-ethynyl-7-fluoro-3-hydroxynaphthalen-1-yl)-8-fluoro-2-(((2R,7aS)-2-fluorohexahydro-1H-pyrrolizin-7a-yl)methoxy)pyrido[4,3-d]pyrimidin-4-yl)-2,6-diazaspiro[3.5]nonan-1-one], for which the IC50 was 2250 nM in the experiment on pERK in HCT116 cells; 3 nM against KRas G12V; 1370 nM in the experiment with pERK in H727 cells; ≤ 2 nM against KRas G12D; 6.02 µM with pERK in PSN1 cells; 1180 nM with pERK in ASPC1 cells. Also, the IC50 came out at 336 nM with pERK in MKN1 cells and 3 nM against KRas G12R.

Turning to `OCC1COCCN(c2nc(OC[C@@]34CCCN3C[C@H](F)C4)nc3c(F)c(-c4cc(O)cc5ccc(F)c(Br)c45)ncc23)C1` (stereo partly drawn) [Example 401, 5-bromo-6-fluoro-4-(8-fluoro-2-(((2R,7aS)-2-fluorohexahydro-1H-pyrrolizin-7a-yl)methoxy)-4-(6-(hydroxymethyl)-1,4-oxazepan-4-yl)pyrido[4,3-d]pyrimidin-7-yl)naphthalen-2-ol], the 50% inhibitory concentration (IC50) is 1150 nM in the experiment with pERK in HCT116 cells; ≤ 2 nM on KRas G12V; 253 nM with pERK in H727 cells; ≤ 2 nM at KRas G12D; 9.96 µM in the experiment on pERK in PSN1 cells; 162 nM with pERK in ASPC1 cells. Further, the half-inhibitory concentration (IC50) in the experiment with pERK in MKN1 cells is 82 nM; against KRas G12R, ≤ 2 nM.

`O=C1NC(=O)C2CN(c3nc(OC[C@@]45CCCN4C[C@H](F)C5)nc4c(F)c(-c5cc(O)cc6ccc(F)c(Br)c56)ncc34)CC12` (stereo partly drawn) [Example 404, 5-(7-(8-bromo-7-fluoro-3-hydroxynaphthalen-1-yl)-8-fluoro-2-(((2R,7aS)-2-fluorohexahydro-1H-pyrrolizin-7a-yl)methoxy)pyrido[4,3-d]pyrimidin-4-yl)tetrahydropyrrolo[3,4-c]pyrrole-1,3(2H,3aH)-dione]: the IC50 with pERK in HCT116 cells was 1380 nM; against KRas G12V, ≤ 2 nM; in the experiment on pERK in H727 cells, 822 nM; against KRas G12D it was ≤ 2 nM; in the experiment on pERK in PSN1 cells it was ≥ 10 µM; with pERK in ASPC1 cells, 136 nM. The IC50 with pERK in MKN1 cells was 55 nM; on KRas G12R it was ≤ 2 nM.

The values above are taken from patent US12398154B2, “Azaquinazoline pan-KRas inhibitors” (Mirati Therapeutics, Inc., priority 2020, dated 2025).
